According to patent US9458102B2 (priority 2011, dated 2016):

Tests used:
[1] = test system: rd10 mouse; experiment: rd10 mouse model of retinal degeneration, intravitreal injection; format: in vivo; conditions: intravitreal injection at P15, final concentration ~0.5 mM, euthanized at P25; PBS in the other eye
Protocol: FIG. 8 is a set of two images of retinal sections from the left eye (left panel) and right eye (right panel) of an rd10 mouse, intravitreally injected with PBS and 5 mM compound 9 (final concentration ^˜0.5 mM), respectively, at P15 and euthanized at P25. Retinas were sectioned at 20 microns, and stained with DAPI. Images are confocal stacks taken very close to the optic nerve. The outer nuclear layers corresponding to photoreceptor cells are shown with white brackets.
(§1) The rd1 mouse is a newer designation for the classic rd mouse, which harbors a nonsense mutation in the PDE6B gene. […] The rd phenotype has been studied for many years, and allows for more rapid assessment of protection strategies. However, the onset of rod photoreceptor death overlaps with the later stages of development and synaptogenesis, making it difficult to distinguish between the primary effects of rod degeneration and the consequences of abnormal neural development. The rd10 phenotype is more reminiscent of typical human RP.
(§2) In separate experiments on adult wild-type mice, the ERG a and b waves were blocked during a similar 10-day treatment, as expected for a concentration in excess of that required to completely block CNG channels. In the rd10 mouse some degeneration was probably underway before the treatment began.

[2] = test system: adult wild-type mice; experiment: ERG in adult wild-type mice during 10-day treatment; format: in vivo, mouse; conditions: similar 10-day treatment
From the text: as §2

[3] = test system: rd1 mouse; experiment: rd1 mouse model of retinal degeneration, subretinal injection; format: in vivo; conditions: subretinal injection at P12, estimated final concentration 5 μM, harvested at P17
Protocol: FIG. 9 is a set of four images of retinal sections from an untreated rd1 mouse euthanized at P17 (upper panels) and an rd1 mouse receiving a subretinal injection of 30 μM compound 8 (final concentration ^˜5 μM) at P12 and euthanized at P17 (lower panels). The photographs show standard histological analysis of retinal sections stained with cresol purple. The right panels are expansions of similar regions in each retina near the optic nerve. The white brackets mark the outer nuclear layer containing photoreceptor nuclei.
as §1
FIG. 9 is a comparison of two rd1 eyes, one untreated (upper panel) and one receiving a subretinal injection of compound 8 to an estimated final concentration of 5 μM at P12. […] Indeed, the entire retina was healthier in appearance in the treated eye.

Row | Compound | neuroprotection of the photoreceptor layer [1] | ERG a and b waves [2] | rescuing effect on retina [3] | outer nuclear layer thickness ([3]; untreated eye one cell thick)
1 | CCCCCCCCNc1ccc(C(=S)NCCN(C)C)cc1 [Compound 9, 4-(Octylamino)-N-(2-(dimethylamino)ethyl)benzothioamide] | striking neuroprotection of the photoreceptor layer | blocked | – | –
2 | CCCCNc1ccc(C(=S)NCCN(C)C)cc1 [Compound 8, 4-(Butylamino)-N-(2-(dimethylamino)ethyl)benzothioamide] | – | – | very noticeable rescuing effect | about three cells thick
